Test results: US7501281B2, “Compositions, methods and kits related to thrombin, Notch signaling and stamatogenesis and growth of stem cells” (Maine Medical Center Research Institute, priority 2003, dated 2009)

Assays:
[1] = system: primary NCSC populations; experiment: Clonogenic differentiation of primary NCSC, dosage sensitivity to Notch ligands; assay type: cell-based, rat; settings: two week differentiation assay
Experimental: FIG. 12A depicts an RT-PCR analysis of FGF1.A mRNA expression. Briefly, populations of murine NCSC were treated for 48 hours in Morrison media supplemented with either 7.5 nM sJ1, 5.0 nM sDl1, 10 μg/ml of α-thrombin or 5 μg/ml TRAP, and the steady-state levels of the FGF1.A mRNA were measured using RT-PCR as described elsewhere herein. […] Clonogenic differentiation assays of murine NCSC populations were assessed by maintaining the cells in Morrison media supplemented with increasing concentrations of either sJ1 or sDl1. The results are presented as the number of colonies at day 14 (mean±standard deviation for at least three experiments) originating from three independent cell isolations as function of concentration of sJ1 and sDl1 using two assays of ligand sensitivity: the percentage of glial-only clones (▪-▪; ▴-▴) and the percentage of neuron-containing clones (♦-♦; ▾-▾) produced after 14 days of ligand exposure. Legend: (▴-▴)sJ1/Glial, (▾-▾) sDl1/Glial (♦-♦) sJ1/Neural and (▾-▾) sJDl1/Neural. […] Clonogenic differentiation assays of NCSC populations was assessed by maintaining the cells in Morrison media supplemented with either 7.5 nM sJ1 (▪-▪) or 5 nM sDl1 (▴-▴). The onset of gliogenic differentiation was determined by GFAP immunohistochemistry. Results are presented as the percentage of GFAP-positive clones (mean±standard deviation of three experiments). […]

[2] = system: PAR1 null cells adenovirally-transduced with the FGF1R136K mutant; experiment: Immunoblot analysis of FGF1 release in PAR1 null cells; assay type: cell-based, mouse; settings: 10 μg/ml α-thrombin
[3] = molecular target: T1, human Jagged1 (Homo sapiens, UniProt P78504, A1171G); experiment: Thrombin cleavage of in vitro translated Jagged1 and Edman microsequencing; assay type: biochemical
T1 construct: full-length Jagged1 was in vitro transcribed and translated; made in house; host or cells: cell-free: T7-coupled reticulocyte lysate in vitro transcription/translation system (Promega)
Experimental: A plasmid containing human Jagged1 (Zimrin et al., 1996, J. Biol. Chem. 271:32499-32502) was in vitro transcribed and in vitro translated in the presence of a (^35S)-Met/Cys protein-labeling mixture (Amersham) using the T7-coupled reticulocyte lysate system according to the manufacturer's instructions (Promega) in a total volume of 50 μl. After 60 minutes incubation at 30° C., 0.05% DTT was added, half of the reaction mixture incubated with 10 μg α-thrombin for 15 minutes at 37° C., and the reaction stopped by boiling in the presence of SDS-PAGE sample buffer. The samples were resolved by 12% SDS-PAGE, transferred to a nitrocellulose membrane, and analyzed by autoradiography. […] The products of each cycle were collected prior to resolution by HPLC, added to liquid scintillation fluid (Beckman) and the (^35S) samples quantitated by liquid scintillation spectroscopy (Beckman).
In an attempt to further define this pathway and the role that sJ1 might play in the regulation of cell proliferation, it was assessed if the Jagged1 translation product was susceptible to proteolytic cleavage by thrombin. […] The Jagged1 transcript was translated in vitro in the presence of (^35S)-Cys, resolved by SDS-PAGE, the 95 kDa fragment excised, subjected to automated Edman chemistry and the products of each cycle monitored by liquid scintillation spectroscopy. […]

T1 sequence (P78504 34-1218 A1171G): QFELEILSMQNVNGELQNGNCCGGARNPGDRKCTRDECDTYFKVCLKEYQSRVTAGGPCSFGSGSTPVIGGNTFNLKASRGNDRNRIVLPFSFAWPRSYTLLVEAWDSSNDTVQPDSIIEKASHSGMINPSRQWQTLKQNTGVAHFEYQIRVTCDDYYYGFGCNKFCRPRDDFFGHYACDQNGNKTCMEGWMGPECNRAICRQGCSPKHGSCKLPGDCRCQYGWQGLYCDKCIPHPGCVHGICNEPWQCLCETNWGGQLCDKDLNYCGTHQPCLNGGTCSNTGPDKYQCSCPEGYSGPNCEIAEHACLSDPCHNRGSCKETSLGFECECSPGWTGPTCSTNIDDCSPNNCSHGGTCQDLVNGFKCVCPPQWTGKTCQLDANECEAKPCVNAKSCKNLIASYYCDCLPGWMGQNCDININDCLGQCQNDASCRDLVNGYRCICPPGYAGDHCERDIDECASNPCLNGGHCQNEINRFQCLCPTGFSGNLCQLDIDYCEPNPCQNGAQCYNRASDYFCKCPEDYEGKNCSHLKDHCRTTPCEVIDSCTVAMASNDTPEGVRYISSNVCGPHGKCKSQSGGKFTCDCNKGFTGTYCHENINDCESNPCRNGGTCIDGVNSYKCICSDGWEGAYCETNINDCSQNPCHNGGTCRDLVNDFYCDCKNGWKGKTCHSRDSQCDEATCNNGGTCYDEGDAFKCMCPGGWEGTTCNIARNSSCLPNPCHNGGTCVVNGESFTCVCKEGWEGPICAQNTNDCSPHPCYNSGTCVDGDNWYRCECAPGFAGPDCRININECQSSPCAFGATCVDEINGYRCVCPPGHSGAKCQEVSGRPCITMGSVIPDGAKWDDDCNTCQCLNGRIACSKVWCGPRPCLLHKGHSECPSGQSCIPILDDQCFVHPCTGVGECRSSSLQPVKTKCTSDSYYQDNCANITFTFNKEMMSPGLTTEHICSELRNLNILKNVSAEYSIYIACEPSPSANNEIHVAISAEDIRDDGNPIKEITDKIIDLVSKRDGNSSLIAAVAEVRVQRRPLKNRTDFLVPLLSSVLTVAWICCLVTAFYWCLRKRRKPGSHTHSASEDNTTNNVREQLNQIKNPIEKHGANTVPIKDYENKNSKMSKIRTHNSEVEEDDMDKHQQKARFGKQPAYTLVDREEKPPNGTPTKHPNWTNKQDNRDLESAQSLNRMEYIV

Row | Substance | gliogenic differentiation of the NCSC population [1] | export of the FGF1R136K mutant [2] | Jagged1 cleavage site ([3]; Edman microsequencing of the 95 kDa fragment) | cleavage products of the 134 kDa Jagged1 translation product ([3]; α-thrombin 15 minutes at 37° C.)
1 | sJ1: Soluble Jagged1, amino acid residues from about 1 to 1067 (SEQ ID NO:3) of full-length Jagged1 | capable of inducing gliogenic differentiation |  |  | 
2 | Thrombin |  | unable to induce the export | between residues R348 and G349 | cleavage of the full-length Jagged1 protein into 39 kDa and 95 kDa fragments
